Source: patent US9090593B2, “Bicyclic compounds as Pim inhibitors” (AMGEN INC., priority 2010, dated 2015)
Where two headings read alike, the source gives them in different places.

What was measured:
[1] = biological target: T1, full length recombinant Pim-2 protein (Homo sapiens, UniProt Q9P1W9); test: Pim-2 enzyme assay (HTRF, phosphorylation of biotinylated-BAD (S112) peptide); type: biochemical; conditions: enzyme assay, Pim-2; read-out: Pim2_IC50
T1 construct: by full length recombinant Pim-1, Pim-2, or Pim-3 protein; hexahistidine tag followed by a thrombin cleavage site (N); made in house; host or cells: Sf9 (baculovirus) or E. coli (pET28)
T1 sequence (Q9P1W9 whole entry): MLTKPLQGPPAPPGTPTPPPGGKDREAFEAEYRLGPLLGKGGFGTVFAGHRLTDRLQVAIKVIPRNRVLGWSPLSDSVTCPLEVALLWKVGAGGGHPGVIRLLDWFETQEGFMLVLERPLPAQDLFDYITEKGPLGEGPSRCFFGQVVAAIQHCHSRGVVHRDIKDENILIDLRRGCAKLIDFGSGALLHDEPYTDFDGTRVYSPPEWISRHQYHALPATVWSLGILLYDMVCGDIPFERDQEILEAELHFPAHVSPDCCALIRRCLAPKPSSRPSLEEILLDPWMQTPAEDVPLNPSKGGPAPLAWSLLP
Outline: (§1)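 Each full-length human Pim enzyme phosphorylates a biotinylated BAD (S112) peptide, and the product is sensed by Eu anti-phospho-BAD antibody with streptavidin-APC after quenching with 3 mM EDTA. Conditions: 60 mM Hepes pH 7.0, 0.05% BSA, 2 mM DTT.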

[2] = biological target: T2, Pim-2 stably transfected into the U2OS human osteogenic sarcoma line (Homo sapiens, UniProt Q9P1W9); test: Pim cell assay, phospho-BAD normalized against total BAD, U2OS stably transfected with Pim-2; type: cell-based; conditions: read-out: Pim2_Cell_IC50; further: high dose 31.6 µM
T2 construct: expressed in transfected cells; host or cells: U2OS human osteogenic sarcoma line
T2 sequence (Q9P1W9 whole entry): as above
Outline: (§2)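 Read-out is phospho-BAD relative to total BAD, by MSD electrochemiluminescence on lysates, expressed as % phosphoprotein = (2×phospho)/(phospho+total)×100. Engineered U2OS lines carrying stably transfected Pim-1 or Pim-2 received 10-point compound dilutions at 0.3% final DMSO after overnight culture at 37 °C; DMSO-only wells served as high control.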

[3] = biological target: T3, Pim-1 stably transfected into the U2OS human osteogenic sarcoma line (Homo sapiens, UniProt P11309); test: Pim cell assay, phospho-BAD normalized against total BAD, U2OS stably transfected with Pim-1; type: cell-based; conditions: read-out: Pim1_Cell_IC50
T3 construct: expressed in transfected cells; host or cells: U2OS human osteogenic sarcoma line
T3 sequence (P11309 whole entry): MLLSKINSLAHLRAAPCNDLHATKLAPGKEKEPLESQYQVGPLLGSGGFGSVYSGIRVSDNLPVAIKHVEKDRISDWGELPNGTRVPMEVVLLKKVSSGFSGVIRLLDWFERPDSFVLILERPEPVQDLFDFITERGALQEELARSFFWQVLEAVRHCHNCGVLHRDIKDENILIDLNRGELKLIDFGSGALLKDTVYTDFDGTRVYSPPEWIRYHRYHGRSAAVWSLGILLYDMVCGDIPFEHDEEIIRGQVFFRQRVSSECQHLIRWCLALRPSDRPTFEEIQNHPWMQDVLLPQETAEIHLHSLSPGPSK
Outline: as §2

[4] = biological target: T4, full length recombinant Pim-3 protein (Homo sapiens, UniProt Q86V86); test: Pim-3 enzyme assay (HTRF, phosphorylation of biotinylated-BAD (S112) peptide); type: biochemical; conditions: read-out: Pim3 IC50
T4 construct: by full length recombinant Pim-1, Pim-2, or Pim-3 protein; purchased Millipore (UK)
Outline: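 HTRF read-out, streptavidin-APC plus Eu-labelled anti-phospho-BAD (S112) antibody, measures BAD peptide phosphorylation by full-length recombinant Pim-3. Buffer: 60 mM Hepes pH 7.0, 2 mM DTT, 0.05% BSA; EDTA (3 mM) stop. Percent of control per well, IC50 by 4-parameter logistic fit.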

[5] = biological target: T5, full length recombinant Pim-1 protein (Homo sapiens, UniProt P11309); test: Pim-1 enzyme assay (HTRF, phosphorylation of biotinylated-BAD (S112) peptide); type: biochemical; conditions: enzyme assay, Pim-1; read-out: Pim_1_IC50
T5 construct: by full length recombinant Pim-1, Pim-2, or Pim-3 protein; hexahistidine tag followed by a thrombin cleavage site (N); made in house; host or cells: Sf9 (baculovirus) or E. coli (pET28)
T5 sequence (P11309 whole entry): as the sequence (P11309 whole entry) above
Outline: as §1

[6] = U2OS cells stably transfected with Pim-2, phospho-BAD, high dose […]
[7] = U2OS cells stably transfected with Pim-1, phospho-BAD, high dose […]

SMILES	IC50 [1] [nM]	IC50 [2] [nM]	IC50 [3] [nM]	IC50 [4] [nM]	IC50 [5] [nM]	IC50 [2, 6] [nM]	IC50 [3, 7] [nM]
CC(C)Oc1cncc(-c2ccc3[nH]cc(-c4cncc(N[C@@H]5CCCNC5)n4)c3c2)n1 [Example 25, (R)-6-(5-(6-isopropoxypyrazin-2-yl)-1H-indol-3-yl)-N-(piperidin-3-yl)pyrazin-2-amine]	198	24700	405	15	4	–	–
CC(C)NC(=O)c1ccc(F)c(-c2ccc3[nH]nc(-c4cncc(O[C@@H]5CCCNC5)n4)c3c2)c1 [Example 122, 4-fluoro-N-(1-methylethyl)-3-(3-(6-((3R)-3-piperidinyloxy)-2-pyrazinyl)-1H-indazol-5-yl)benzamide]	14	–	–	20	16	1850	287
NC1CCN(c2cncc(-c3n[nH]c4ccc(-c5cccc(F)n5)cc34)n2)CC1 [Example 66, 1-(6-(5-(6-fluoro-2-pyridinyl)-1H-indazol-3-yl)-2-pyrazinyl)-4-piperidinamine]	33	–	–	2	4	17300	401
C[C@H]1CCNC[C@@H]1Oc1cncc(-c2n[nH]c3ccc(-c4c(F)cccc4F)cc23)n1 [Example 195, 5-(2,6-difluorophenyl)-3-(6-(((3R,4S)-4-methyl-3-piperidinyl)oxy)-2-pyrazinyl)-1H-indazole]	15	–	–	7	4	7580	211
NC1CCN(c2cncc(-c3n[nH]c4ccc(-c5ccccc5F)cc34)n2)CC1 [Example 67, 1-(6-(5-(2-fluorophenyl)-1H-indazol-3-yl)-2-pyrazinyl)-4-piperidinamine]	10	–	–	1	2	15000	380
NC1CCN(c2cncc(-c3n[nH]c4ccc(-c5cccc(F)c5F)cc34)n2)CC1 [Example 71, 1-(6-(5-(2,3-difluorophenyl)-1H-indazol-3-yl)-2-pyrazinyl)-4-piperidinamine]	11	–	–	1	3	8820	256
NC1CCN(c2cncc(-c3n[nH]c4ccc(-c5ccncc5)cc34)n2)CC1 [Example 102, 1-(6-(5-(4-pyridinyl)-1H-indazol-3-yl)-2-pyrazinyl)-4-piperidinamine]	20	–	–	3	2	5000	199
NC1CCN(c2cncc(-c3c[nH]c4ccc(-c5c(F)cccc5Cl)cc34)n2)CC1 [Example 27, 1-(6-(5-(2-chloro-6-fluorophenyl)-1H-indol-3-yl)pyrazin-2-yl)piperidin-4-amine bis(2,2,2-trifluoroacetate)]	48	–	–	9	10	27200	780
CC(C)(C)NC(=O)c1ccc(F)c(-c2ccc3[nH]nc(-c4cncc(N5CCC(N)CC5)n4)c3c2)c1 [Example 37, 3-(3-(6-(4-amino-1-piperidinyl)-2-pyrazinyl)-1H-indazol-5-yl)-N-tert-butyl-4-fluorobenzamide]	19	–	–	5	13	3530	573
NC1CCN(c2nccc(-c3n[nH]c4ccc(-c5c(F)cccc5F)cc34)n2)CC1 [Example 194, 1-(4-(5-(2,6-difluorophenyl)-1H-indazol-3-yl)-2-pyrimidinyl)-4-piperidinamine]	52	–	–	3	2	> 31600	561
c1cc2[nH]nc(-c3cncc(O[C@@H]4CCCNC4)n3)c2cc1-c1cncc(C2CC2)n1 [Example 118, 5-(6-cyclopropyl-2-pyrazinyl)-3-(6-((3R)-3-piperidinyloxy)-2-pyrazinyl)-1H-indazole]	24	–	–	1	–	5750	41
CN1CCOc2cc(-c3ccc4[nH]nc(-c5cncc(O[C@@H]6CCCNC6)n5)c4c3)ccc21 [Example 123, 4-methyl-7-(3-(6-((3R)-3-piperidinyloxy)-2-pyrazinyl)-1H-indazol-5-yl)-3,4-dihydro-2H-1,4-benzoxazine]	10	–	–	6	1	3520	–
COC(=O)c1ccc2[nH]cc(-c3cncc(N4CCC(N)CC4)n3)c2c1 [Example 236, methyl 3-(6-(4-aminopiperidin-1-yl)pyrazin-2-yl)-1H-indole-5-carboxylate]	44	5820	–	7	5	–	–
NC1CCN(c2cncc(-c3c[nH]c4ccc([N+](=O)[O-])cc34)n2)CC1 [Example 232, 1-(6-(5-nitro-1H-indol-3-yl)pyrazin-2-yl)piperidin-4-amine]	65	> 15800	–	28	47	–	–
NC1CCN(c2cncc(-c3n[nH]c4ccc(-c5ccnc(N6CCOCC6)n5)cc34)n2)CC1 [Example 98, 1-(6-(5-(2-(4-morpholinyl)-4-pyrimidinyl)-1H-indazol-3-yl)-2-pyrazinyl)-4-piperidinamine]	72	–	–	2	1	> 31600	–
NC1CCN(c2cncc(-c3n[nH]c4ccc(-c5cc6ccccc6nc5O)cc34)n2)CC1 [Example 54, 3-(3-(6-(4-amino-1-piperidinyl)-2-pyrazinyl)-1H-indazol-5-yl)-2-quinolinol]	183	–	–	4	7	–	3660
c1cc2c(cc1-c1ccc3[nH]nc(-c4cncc(O[C@@H]5CCCNC5)n4)c3c1)OCCO2 [Example 140, 5-(2,3-dihydro-1,4-benzodioxin-6-yl)-3-(6-((3R)-3-piperidinyloxy)-2-pyrazinyl)-1H-indazole]	19	–	–	6	2	7780	–
Fc1cccnc1-c1ccc2[nH]nc(-c3cncc(O[C@@H]4CCCNC4)n3)c2c1 [Example 124, 5-(3-fluoro-2-pyridinyl)-3-(6-((3R)-3-piperidinyloxy)-2-pyrazinyl)-1H-indazole]	58	–	–	11	11	–	402
C1=C(c2ccc3[nH]nc(-c4cncc(O[C@@H]5CCCNC5)n4)c3c2)CCOC1 [Example 148, 5-(3,6-dihydro-2H-pyran-4-yl)-3-(6-((3R)-3-piperidinyloxy)-2-pyrazinyl)-1H-indazole]	25	–	–	7	6	–	314
NC1CCN(c2cncc(-c3n[nH]c4ccc(-c5ccnc6cc(F)ccc56)cc34)n2)CC1 [Example 110, 1-(6-(5-(7-fluoro-4-quinolinyl)-1H-indazol-3-yl)-2-pyrazinyl)-4-piperidinamine]	151	–	–	23	8	–	776
O=C(NC1CC1)c1ccnc(-c2ccc3[nH]nc(-c4cncc(O[C@@H]5CCCNC5)n4)c3c2)c1 [Example 157, N-cyclopropyl-2-(3-(6-((3R)-3-piperidinyloxy)-2-pyrazinyl)-1H-indazol-5-yl)-4-pyridinecarboxamide]	32	–	–	12	12	–	1740
C(=C\C1CC1)/c1ccc2[nH]nc(-c3cncc(O[C@@H]4CCCNC4)n3)c2c1 [Example 147, 5-((E)-2-cyclopropylethenyl)-3-(6-((3R)-3-piperidinyloxy)-2-pyrazinyl)-1H-indazole]	105	–	–	13	7	–	724
O=C(NC1CC1)c1cncc(-c2ccc3[nH]nc(-c4cncc(O[C@@H]5CCCNC5)n4)c3c2)c1 [Example 159, N-cyclopropyl-5-(3-(6-((3R)-3-piperidinyloxy)-2-pyrazinyl)-1H-indazol-5-yl)-3-pyridinecarboxamide]	71	–	–	1	2	–	750
N[C@@H]1CCCN(c2cncc(-c3c[nH]c4ccc(-c5c(F)cccc5F)cc34)n2)C1 [Example 203, (3R)-1-(6-(5-(2,6-difluorophenyl)-1H-indol-3-yl)-2-pyrazinyl)-3-piperidinamine]	184	–	–	18	8	–	3050
Fc1cccc(F)c1-c1ccc2[nH]nc(-c3cncc(N4CCOCC4)n3)c2c1 [Example 169, 5-(2,6-difluorophenyl)-3-(6-(4-morpholinyl)-2-pyrazinyl)-1H-indazole]	1640	–	–	92	69	–	2410
